Key:
[1] = tested on: Plasmodium falciparum; assay: NOVARTIS: Inhibition of Plasmodium falciparum W2 (drug-resistant) proliferation in erythrocyte-based infection assay; format: functional, organism-based; conditions: Plasmodium falciparum, W2; read-out: EC50
[2] = tested on: Plasmodium falciparum; assay: NOVARTIS: Inhibition of Plasmodium falciparum 3D7 (drug-susceptible) proliferation in erythrocyte-based infection assay; format: functional, organism-based; conditions: Plasmodium falciparum, 3D7
[3] = NOVARTIS: Cytotoxicity against human hepatocellular carcinoma cell line (Huh7); format: toxicity, cell-based, Huh-7; conditions: Huh7 cells (hepatocellular carcinoma cell line)

N=c1n(Cc2ccccc2)c2ccccc2n1CC(O)c1ccc(Cl)cc1 (stereo not given) showed an EC50 [1] of 50.6 nM, an EC50 [2] of 257 nM and a CC50 [3] of 11100 nM.

For CC(=NNC(N)=S)C(C)=NNC(N)=S, the EC50 [1] was 462 nM, the EC50 [2] was 572 nM and the CC50 [3] was > 100000 nM.

In the case of CCc1nc2nc(C)cc(NCCc3cccc(C)c3)n2n1, the EC50 [1] is reported as 453 nM, the EC50 [2] is reported as 334 nM and the CC50 [3] is reported as > 100000 nM.

With COc1ccc(-c2c(C(F)(F)F)nn(C)c2NC(=O)Nc2ccc(F)cc2F)cc1 the EC50 [1] was 356 nM, the EC50 [2] was 242 nM and the CC50 [3] was 78200 nM.

For CN(C)CCCn1c(N)c(-c2nc3ccccc3[nH]2)c2nc(C#N)c(C#N)nc21, the EC50 [1] was 274 nM, the EC50 [2] was 463 nM and the CC50 [3] was 60200 nM.

COc1ccc(C2CC(=O)C3=C(C2)NC(C)=C(C(=O)OC(C)C)C3c2ccccc2F)cc1OC (stereo not given) showed an EC50 [1] of 33.2 nM, an EC50 [2] of 34.7 nM and a CC50 [3] of 7320 nM.

For CC(C)CCNCC(O)Cn1c2ccc(Cl)cc2c2cc(Cl)ccc21 (stereo not given), the EC50 [1] was 96.6 nM, the EC50 [2] was 192 nM and the CC50 [3] was 20600 nM.

With CCOc1ccc(-c2nonc2NC(=O)c2ccco2)cc1OCC the EC50 [1] was 481 nM, the EC50 [2] was 590 nM and the CC50 [3] was > 100000 nM.

With Cn1nc(C(F)(F)F)c(-c2ccc(Br)cc2)c1NC(=O)Nc1ccc(F)cc1F the EC50 [1] was 206 nM, the EC50 [2] was 212 nM and the CC50 [3] was 42800 nM.

In the case of N=c1ccn(CC(=O)N2CCCc3ccccc32)c2ccccc12, the EC50 [1] is reported as 453 nM, the EC50 [2] is reported as 1490 nM and the CC50 [3] is reported as > 100000 nM.

With NNC(=O)CNC(c1ccccc1)c1cc(Br)ccc1NC(=O)c1ccccc1Br (stereo not given) the EC50 [1] was 453 nM, the EC50 [2] was 342 nM and the CC50 [3] was > 100000 nM.

CC(C)NC(=O)c1ccc(OC2CCN(CC3CCCCC3)CC2)c(Cl)c1 gave an EC50 [1] of 298 nM, an EC50 [2] of 476 nM and a CC50 [3] of 65900 nM.

For O=C(NCCCCCCCCNC(=O)Nc1ccc(C2=NCCN2)cc1)Nc1ccc(C2=NCCN2)cc1, the EC50 [1] was 45.9 nM, the EC50 [2] was 85.4 nM and the CC50 [3] was > 10000 nM.

In the case of COc1cc(OC)cc(C(=O)NCc2n[nH]c(=S)n2-c2cccc(Cl)c2)c1, the EC50 [1] is reported as 450 nM, the EC50 [2] is reported as 565 nM and the CC50 [3] is reported as > 100000 nM.

With CCOC(=O)c1nnn(-c2nonc2N)c1-c1ccc(OC)c(OC)c1 the EC50 [1] was 450 nM, the EC50 [2] was 513 nM and the CC50 [3] was > 100000 nM.

In the case of Cc1nnc(SCC(=O)NCc2ccco2)n1-c1ccc(F)cc1, the EC50 [1] is reported as 459 nM, the EC50 [2] is reported as > 8950 nM and the CC50 [3] is reported as > 100000 nM.

Work on Oc1ccc(-c2cnccn2)cc1CNC1CCN(Cc2ccccc2)CC1 yielded an EC50 [1] of 380 nM, an EC50 [2] of 385 nM and a CC50 [3] of 82800 nM.

In the case of COc1ccc(-c2nc(-c3ccncc3)cnc2N)cc1OC, the EC50 [1] is reported as 45.7 nM, the EC50 [2] is reported as 35.8 nM and the CC50 [3] is reported as > 10000 nM.

In the case of CCCCCC(=O)Oc1ccccc1-c1nc2cc(C)ccn2c1NC(C)(C)CC(C)(C)C, the EC50 [1] is reported as 44.8 nM, the EC50 [2] is reported as 703 nM and the CC50 [3] is reported as > 10000 nM.

In the case of CCC1CCCCN1S(=O)(=O)c1cc(Br)cc2c1N(C(=O)C1CC1)CC2 (stereo not given), the EC50 [1] is reported as 448 nM, the EC50 [2] is reported as 2840 nM and the CC50 [3] is reported as > 100000 nM.

In the case of O=C(Nc1ccc(C23CC4CC(CC(c5ccccc5)(C4)C2)C3)cc1)c1cccs1, the EC50 [1] is reported as 468 nM, the EC50 [2] is reported as 645 nM and the CC50 [3] is reported as > 100000 nM.

In the case of COc1cc(NC(C)CCCN(Cc2ccccc2OC)C(=O)c2ccc(Cl)c([N+](=O)[O-])c2)c2ncccc2c1 (stereo not given), the EC50 [1] is reported as < 18.2 nM, the EC50 [2] is reported as 1200 nM and the CC50 [3] is reported as > 3910 nM.

In the case of O=C(Nc1nc2ccccc2s1)c1ccc(S(=O)(=O)N2CCOCC2)cc1, the EC50 [1] is reported as > 46.1 nM, the EC50 [2] is reported as > 1250 nM and the CC50 [3] is reported as > 10000 nM.

CC(=O)N(C1=C(N2CCCCC2)C(=O)c2ccccc2C1=O)c1cccc(F)c1 gave an EC50 [1] of 109 nM, an EC50 [2] of 146 nM and a CC50 [3] of 23700 nM.

For Cc1ccc(-c2nn(-c3ccccc3)c3[nH]c(=O)c(CNCc4ccccc4)cc23)cc1, the EC50 [1] was 467 nM, the EC50 [2] was 1610 nM and the CC50 [3] was > 100000 nM.

CC(C)CCNCC(O)Cn1c2ccc(Br)cc2c2cc(Br)ccc21 (stereo not given) showed an EC50 [1] of 88.5 nM, an EC50 [2] of 270 nM and a CC50 [3] of 19000 nM.

Molecule N=c1n(Cc2ccccc2)c2ccccc2n1CC(O)c1ccc(Br)cc1 (stereo not given) has an EC50 [1] of 101 nM, an EC50 [2] of 254 nM and a CC50 [3] of 21800 nM.

In the case of CCN1CC=C2C(C#N)=C(N)C(C#N)(C#N)[C@H](c3ccc(C)s3)[C@H]2C1, the EC50 [1] is reported as 464 nM, the EC50 [2] is reported as 1680 nM and the CC50 [3] is reported as > 100000 nM.

CCOC(=O)C1CCN(C(=O)c2c(C)oc3c2C(=O)c2ccccc2C3=O)CC1 showed an EC50 [1] of 103 nM, an EC50 [2] of 201 nM and a CC50 [3] of 22200 nM.

Work on C=CC1CN2CCC1CC2C(OC(=O)C1CC1)c1ccnc2ccccc12 (stereo not given) yielded an EC50 [1] of 199 nM, an EC50 [2] of 84.7 nM and a CC50 [3] of 42200 nM.

Molecule O=C1C(Nc2ccc(Cl)cc2)=C(N2CCCCC2)C(=O)c2ccccc21 has an EC50 [1] of 250 nM, an EC50 [2] of 319 nM and a CC50 [3] of 53200 nM.

For COc1ccc(C(Cc2ccccc2)NC2CN3CCC2CC3)cc1 (stereo not given), the EC50 [1] was 308 nM, the EC50 [2] was 4260 nM and the CC50 [3] was > 65000 nM.

In the case of CCOc1ccc(NC(=O)CSc2nncc(O)n2)cc1, the EC50 [1] is reported as 473 nM, the EC50 [2] is reported as 859 nM and the CC50 [3] is reported as > 100000 nM.

For Cc1ccc(C(=O)NC2CCN(S(=O)(=O)c3c(C)cc(C)cc3C)CC2)cc1, the EC50 [1] was 472 nM, the EC50 [2] was 1440 nM and the CC50 [3] was > 100000 nM.

CC(=O)N(C1=C(N2CCCC2)C(=O)c2ccccc2C1=O)c1ccc(I)cc1 gave an EC50 [1] of 224 nM, an EC50 [2] of 553 nM and a CC50 [3] of 47000 nM.

With Cc1ccn2c(NC(C)(C)CC(C)(C)C)c(-c3ccccc3OC(=O)c3ccc(C)c([N+](=O)[O-])c3)nc2c1 the EC50 [1] was 47.7 nM, the EC50 [2] was 744 nM and the CC50 [3] was > 10000 nM.

For O=C(ON=C(c1ccncc1)c1ccc(Cl)cc1)c1ccccc1, the EC50 [1] was > 48 nM, the EC50 [2] was 1240 nM and the CC50 [3] was > 10000 nM.

For CC(=O)N(C1=C(N2CCN(C)CC2)C(=O)c2ccccc2C1=O)c1cc(C)cc(C)c1, the EC50 [1] was 61.2 nM, the EC50 [2] was 67 nM and the CC50 [3] was 12600 nM.

For COc1ccc(OC)c(C2CC(=O)N3CN(Cc4ccccc4)CSC3=C2C#N)c1 (stereo not given), the EC50 [1] was 482 nM, the EC50 [2] was 638 nM and the CC50 [3] was > 100000 nM.

With Clc1ccc2c(c1)c1cc(Cl)ccc1n2CC1CO1 (stereo not given) the EC50 [1] was 277 nM, the EC50 [2] was 341 nM and the CC50 [3] was 57400 nM.

For CC(=O)Nc1ccc(NS(=O)(=O)c2cc([N+](=O)[O-])ccc2Cl)cc1, the EC50 [1] was 475 nM, the EC50 [2] was > 12500 nM and the CC50 [3] was > 100000 nM.

For O=C1C2C(C(=O)N1c1ccc(F)cc1)C1(c3ccccc3)C(=O)C2(c2ccccc2)C(c2ccccc2)=C1c1ccccc1 (stereo not given), the EC50 [1] was 474 nM, the EC50 [2] was 563 nM and the CC50 [3] was > 100000 nM.

With COc1ccc(C2CC(=O)C3=C(C2)NC(C)=C(C(=O)OC2CCCC2)C3c2cccc(Cl)c2)cc1OC (stereo not given) the EC50 [1] was 75.8 nM, the EC50 [2] was 201 nM and the CC50 [3] was 16800 nM.

With CCCNC(=O)N1CCC2(CC1)CC(=O)c1cc(C)ccc1O2 the EC50 [1] was 448 nM, the EC50 [2] was 870 nM and the CC50 [3] was > 100000 nM.

With CCOC(=O)C1=C(CC)NC2=C(C(=O)CCC2)C1c1ccc(OC)c(Br)c1 (stereo not given) the EC50 [1] was 387 nM, the EC50 [2] was 1070 nM and the CC50 [3] was > 83800 nM.

In the case of CCCCCCCC(O)(c1ccc(OCC)cc1)C(CN1CCCCC1)c1ccccc1 (stereo not given), the EC50 [1] is reported as 456 nM, the EC50 [2] is reported as 1180 nM and the CC50 [3] is reported as > 100000 nM.

Work on OC(Cn1cnc(-c2ccccc2)c1-c1ccccc1)Cn1c2ccc(Cl)cc2c2cc(Cl)ccc21 (stereo not given) yielded an EC50 [1] of 99.7 nM, an EC50 [2] of 589 nM and a CC50 [3] of 21200 nM.

In the case of COC(=O)C1=C(C)NC2=C(C(=O)CC(c3ccccc3Cl)C2)C1c1ccc(OC)c(OC)c1 (stereo not given), the EC50 [1] is reported as 478 nM, the EC50 [2] is reported as 1290 nM and the CC50 [3] is reported as > 100000 nM.

With O=C(Nc1ccc(OC(F)(F)F)cc1)c1cnn2c1NC(c1cccs1)CC2C(F)(F)F (stereo not given) the EC50 [1] was 241 nM, the EC50 [2] was 492 nM and the CC50 [3] was > 50000 nM.

With Cc1ccc(O)c(NC(=O)c2cnn3c(C(F)(F)F)cc(-c4ccccc4)nc23)c1 the EC50 [1] was 472 nM, the EC50 [2] was 1820 nM and the CC50 [3] was > 100000 nM.

Reference: ChEMBL document CHEMBL1156829 (Proc Natl Acad Sci U S A, 2008)
